# According to publication PMC7827406, “Structure–Activity Relationship (SAR) Study of Spautin-1 to Entail the Discovery of Novel NEK4 Inhibitors” (International Journal of Molecular Sciences, 2021):
# Read-outs that look alike come from different tables or passages of the source.
# How the values were obtained:
# Assay in all cases: biochemical
# Parameters in all cases: Eurofins KinaseProfiler full panel at Km ATP, residual kinase activity (%) relative to DMSO
# [1] = molecular target: EGFR(L858R)(h) (Homo sapiens, UniProt P00533, L858R)
# Outline: (§1)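 Compounds screened at 10 µM in radiometric kinase activity assays at Km ATP, reported as remaining kinase activity (%). A KINOMEscan competition-binding screen at 10 µM measured DNA-tagged kinase retained on immobilized active-site ligand by qPCR.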
# [2] = molecular target: T1, GRK2(h) (Homo sapiens, UniProt P25098)
# T1 sequence (P25098 1-689): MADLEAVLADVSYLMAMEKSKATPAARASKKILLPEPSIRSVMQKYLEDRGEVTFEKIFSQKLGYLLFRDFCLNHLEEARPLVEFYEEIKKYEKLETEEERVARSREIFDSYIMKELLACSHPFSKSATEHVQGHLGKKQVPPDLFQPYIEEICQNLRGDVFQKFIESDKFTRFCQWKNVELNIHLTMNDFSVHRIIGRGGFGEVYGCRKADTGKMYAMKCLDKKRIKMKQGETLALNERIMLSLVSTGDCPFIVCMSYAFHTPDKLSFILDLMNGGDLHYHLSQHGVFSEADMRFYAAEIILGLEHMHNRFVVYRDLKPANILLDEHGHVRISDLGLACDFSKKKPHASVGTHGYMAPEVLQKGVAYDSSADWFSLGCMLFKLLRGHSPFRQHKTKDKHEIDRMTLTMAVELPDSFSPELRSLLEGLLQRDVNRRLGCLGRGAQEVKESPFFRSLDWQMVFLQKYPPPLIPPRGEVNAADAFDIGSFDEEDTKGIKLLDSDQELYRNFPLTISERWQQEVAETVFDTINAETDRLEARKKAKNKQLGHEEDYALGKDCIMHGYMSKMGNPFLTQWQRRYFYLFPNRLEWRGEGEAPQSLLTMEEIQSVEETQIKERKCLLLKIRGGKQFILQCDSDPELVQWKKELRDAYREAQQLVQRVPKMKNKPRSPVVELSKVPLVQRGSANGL
# Outline: as §1
# [3] = molecular target: T2, SIK(h) (Homo sapiens, UniProt P57059)
# T2 construct: gene SIK1
# Outline: as §1
# [4] = molecular target: T3, Abl(T315I)(h) (Homo sapiens, UniProt P00519, T315I)
# T3 construct: gene ABL1
# Outline: as §1
# [5] = molecular target: T4, DMPK(h) (Homo sapiens, UniProt Q09013)
# T4 sequence (Q09013 1-629): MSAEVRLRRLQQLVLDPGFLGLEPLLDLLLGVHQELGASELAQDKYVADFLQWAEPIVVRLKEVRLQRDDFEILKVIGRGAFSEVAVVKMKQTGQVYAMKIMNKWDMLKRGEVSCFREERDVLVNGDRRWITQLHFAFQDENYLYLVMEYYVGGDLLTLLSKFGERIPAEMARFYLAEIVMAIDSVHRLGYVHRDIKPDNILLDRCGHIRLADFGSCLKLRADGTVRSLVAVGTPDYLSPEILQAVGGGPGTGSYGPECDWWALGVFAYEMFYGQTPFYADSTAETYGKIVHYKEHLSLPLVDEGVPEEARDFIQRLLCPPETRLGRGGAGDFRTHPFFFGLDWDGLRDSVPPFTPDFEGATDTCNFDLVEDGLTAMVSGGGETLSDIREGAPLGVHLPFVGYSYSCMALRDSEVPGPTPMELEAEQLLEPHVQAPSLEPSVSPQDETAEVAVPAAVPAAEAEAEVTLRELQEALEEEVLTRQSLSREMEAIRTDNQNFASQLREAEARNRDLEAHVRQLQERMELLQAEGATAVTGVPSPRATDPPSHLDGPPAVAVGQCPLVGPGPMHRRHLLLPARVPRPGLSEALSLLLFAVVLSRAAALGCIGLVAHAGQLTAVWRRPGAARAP
# Outline: as §1
# [6] = molecular target: T5, Pyk2(h) (Homo sapiens, UniProt Q14289)
# T5 construct: gene PTK2B
# Outline: as §1
# [7] = read-out: Residual activity (%) Spautin-1 5aa
# [8] = read-out: Residual activity (%) 5as
# [9] = read-out: Residual activity (%) 5at
# [10] = read-out: Residual activity (%) 5ay
# T5 sequence (Q14289 whole entry): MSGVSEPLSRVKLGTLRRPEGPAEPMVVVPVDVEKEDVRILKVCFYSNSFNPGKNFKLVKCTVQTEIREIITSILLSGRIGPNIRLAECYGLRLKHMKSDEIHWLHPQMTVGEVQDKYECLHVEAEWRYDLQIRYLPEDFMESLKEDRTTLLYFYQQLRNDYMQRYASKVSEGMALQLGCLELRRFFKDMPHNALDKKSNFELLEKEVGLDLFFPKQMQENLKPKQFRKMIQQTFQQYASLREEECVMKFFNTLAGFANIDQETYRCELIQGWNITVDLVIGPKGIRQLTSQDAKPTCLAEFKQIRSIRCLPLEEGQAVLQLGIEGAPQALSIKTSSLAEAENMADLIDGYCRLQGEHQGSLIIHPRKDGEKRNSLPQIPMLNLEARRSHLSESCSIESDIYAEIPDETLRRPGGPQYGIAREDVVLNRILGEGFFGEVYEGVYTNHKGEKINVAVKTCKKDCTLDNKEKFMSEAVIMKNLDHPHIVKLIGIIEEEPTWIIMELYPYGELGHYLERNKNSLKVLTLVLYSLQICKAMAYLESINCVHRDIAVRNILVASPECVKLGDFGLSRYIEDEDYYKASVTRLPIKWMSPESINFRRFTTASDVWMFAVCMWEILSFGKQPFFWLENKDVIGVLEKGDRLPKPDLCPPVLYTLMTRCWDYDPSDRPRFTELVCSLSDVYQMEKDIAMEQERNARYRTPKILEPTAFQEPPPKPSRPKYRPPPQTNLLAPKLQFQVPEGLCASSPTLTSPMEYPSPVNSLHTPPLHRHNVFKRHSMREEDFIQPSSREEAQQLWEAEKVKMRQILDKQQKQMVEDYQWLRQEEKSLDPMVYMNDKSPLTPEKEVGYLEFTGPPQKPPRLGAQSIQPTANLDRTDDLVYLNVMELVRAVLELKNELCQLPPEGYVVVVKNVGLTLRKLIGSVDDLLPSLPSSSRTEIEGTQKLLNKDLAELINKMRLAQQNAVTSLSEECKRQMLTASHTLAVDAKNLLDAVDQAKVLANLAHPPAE
# EGFR(L858R)(h), sequence (P00533 whole entry L858R): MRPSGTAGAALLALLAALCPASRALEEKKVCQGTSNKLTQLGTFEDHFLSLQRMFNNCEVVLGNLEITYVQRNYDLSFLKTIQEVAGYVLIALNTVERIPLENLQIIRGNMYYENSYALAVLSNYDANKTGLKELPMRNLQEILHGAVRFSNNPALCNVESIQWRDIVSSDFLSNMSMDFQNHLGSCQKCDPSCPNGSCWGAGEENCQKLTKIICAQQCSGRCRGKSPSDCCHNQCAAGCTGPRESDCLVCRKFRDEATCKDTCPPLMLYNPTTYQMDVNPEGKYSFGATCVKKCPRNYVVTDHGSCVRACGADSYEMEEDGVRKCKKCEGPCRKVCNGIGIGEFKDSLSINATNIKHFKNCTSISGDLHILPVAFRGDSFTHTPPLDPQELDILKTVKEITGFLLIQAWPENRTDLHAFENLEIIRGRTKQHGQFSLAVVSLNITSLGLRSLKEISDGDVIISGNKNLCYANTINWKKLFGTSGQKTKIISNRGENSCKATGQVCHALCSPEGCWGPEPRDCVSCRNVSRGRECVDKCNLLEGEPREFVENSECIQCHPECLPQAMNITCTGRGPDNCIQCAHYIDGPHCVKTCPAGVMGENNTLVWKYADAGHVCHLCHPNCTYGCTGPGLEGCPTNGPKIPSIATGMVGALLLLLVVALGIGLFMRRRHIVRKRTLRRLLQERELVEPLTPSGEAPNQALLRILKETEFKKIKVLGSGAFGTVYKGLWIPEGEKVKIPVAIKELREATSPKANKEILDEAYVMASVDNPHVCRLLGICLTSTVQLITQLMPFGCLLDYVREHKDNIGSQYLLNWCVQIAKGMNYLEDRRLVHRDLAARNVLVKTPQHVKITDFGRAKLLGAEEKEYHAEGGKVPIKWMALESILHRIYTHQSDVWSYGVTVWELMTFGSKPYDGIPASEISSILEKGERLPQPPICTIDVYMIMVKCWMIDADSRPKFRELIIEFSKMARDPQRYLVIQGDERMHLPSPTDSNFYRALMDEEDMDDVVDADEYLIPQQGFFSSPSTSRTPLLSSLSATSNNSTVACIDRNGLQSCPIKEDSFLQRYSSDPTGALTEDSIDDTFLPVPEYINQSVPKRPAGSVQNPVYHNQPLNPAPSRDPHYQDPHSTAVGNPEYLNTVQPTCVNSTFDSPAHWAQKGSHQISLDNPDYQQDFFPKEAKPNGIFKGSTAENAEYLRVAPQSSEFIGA
# T2 sequence (P57059 whole entry): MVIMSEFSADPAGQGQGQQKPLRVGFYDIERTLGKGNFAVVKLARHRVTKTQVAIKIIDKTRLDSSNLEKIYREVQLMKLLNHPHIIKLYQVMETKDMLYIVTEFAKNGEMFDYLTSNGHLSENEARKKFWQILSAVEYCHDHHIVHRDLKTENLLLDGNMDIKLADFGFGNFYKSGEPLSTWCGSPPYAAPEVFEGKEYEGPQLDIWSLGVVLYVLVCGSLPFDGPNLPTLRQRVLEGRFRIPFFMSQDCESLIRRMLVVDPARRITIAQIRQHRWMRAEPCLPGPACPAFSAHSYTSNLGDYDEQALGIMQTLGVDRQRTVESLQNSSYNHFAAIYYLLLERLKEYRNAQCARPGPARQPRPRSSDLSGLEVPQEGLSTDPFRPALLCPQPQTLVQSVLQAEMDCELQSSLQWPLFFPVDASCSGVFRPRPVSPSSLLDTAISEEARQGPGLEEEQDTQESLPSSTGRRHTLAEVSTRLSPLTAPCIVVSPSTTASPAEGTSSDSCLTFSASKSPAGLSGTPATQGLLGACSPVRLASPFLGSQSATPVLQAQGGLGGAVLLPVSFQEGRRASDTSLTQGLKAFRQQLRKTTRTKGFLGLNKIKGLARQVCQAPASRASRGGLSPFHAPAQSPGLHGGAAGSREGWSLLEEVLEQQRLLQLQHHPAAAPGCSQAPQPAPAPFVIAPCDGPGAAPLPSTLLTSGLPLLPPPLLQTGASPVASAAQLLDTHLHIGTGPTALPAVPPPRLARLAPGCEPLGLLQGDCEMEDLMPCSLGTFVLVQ
compound,measurement,setting,value
"Fc1ccc(CNc2ncnc3ccc(F)cc23)cc1 [5aa, 6-Fluoro-N-(4-fluorobenzyl)-4-Quinazolinamine]",remaining activity at 10 µM,[1]; [7],23%
same,remaining activity at 10 µM,[2]; [7],107%
same,remaining activity at 10 µM,[3]; [7],98%
same,remaining activity at 10 µM,[4]; [7],73%
same,remaining activity at 10 µM,[5]; [7],79%
same,remaining activity at 10 µM,[6]; [7],86%
"Fc1ccc(CCNc2ncnc3ccc(F)cc23)cc1 [5as, 6-Fluoro-N-[2-(4-Fluorophenyl)Ethyl]-4-Quinazolinamine]",remaining activity at 10 µM,[1]; [8],37%
same,remaining activity at 10 µM,[2]; [8],101%
same,remaining activity at 10 µM,[3]; [8],90%
same,remaining activity at 10 µM,[4]; [8],101%
same,remaining activity at 10 µM,[5]; [8],90%
same,remaining activity at 10 µM,[6]; [8],74%
"Fc1ccc2ncnc(NCCc3ccc(Cl)cc3)c2c1 [5at, N-[2-(4-Chlorophenyl)Ethyl]-6-Fluoro-4-Quinazolinamine]",remaining activity at 10 µM,[1]; [9],60%
same,remaining activity at 10 µM,[2]; [9],107%
same,remaining activity at 10 µM,[3]; [9],86%
same,remaining activity at 10 µM,[4]; [9],80%
same,remaining activity at 10 µM,[5]; [9],80%
same,remaining activity at 10 µM,[6]; [9],69%
"COc1ccc2ncnc(Nc3cccc(F)c3)c2c1 [5ay, N-(3-Fluorophenyl)-6-Methoxy-4-Quinazolinamine]",remaining activity at 10 µM,[1]; [10],3%
same,remaining activity at 10 µM,[2]; [10],95%
same,remaining activity at 10 µM,[3]; [10],74%
same,remaining activity at 10 µM,[4]; [10],91%
same,remaining activity at 10 µM,[5]; [10],99%
same,remaining activity at 10 µM,[6]; [10],72%
